The source of these data is BindingDB's records for doi:10.1016/j.chembiol.2004.02.012 (Triad Therapeutics, 2004).

Bounds are passed on as bounds.

Holding throughout (assay): Steady-State Inhibition Assay
Holding throughout (settings): pH 7.4

Test [1] deals with T1, Quinone-dependent D-lactate dehydrogenase (Escherichia coli (strain K12), UniProt P06149).
T1 sequence (P06149 whole entry): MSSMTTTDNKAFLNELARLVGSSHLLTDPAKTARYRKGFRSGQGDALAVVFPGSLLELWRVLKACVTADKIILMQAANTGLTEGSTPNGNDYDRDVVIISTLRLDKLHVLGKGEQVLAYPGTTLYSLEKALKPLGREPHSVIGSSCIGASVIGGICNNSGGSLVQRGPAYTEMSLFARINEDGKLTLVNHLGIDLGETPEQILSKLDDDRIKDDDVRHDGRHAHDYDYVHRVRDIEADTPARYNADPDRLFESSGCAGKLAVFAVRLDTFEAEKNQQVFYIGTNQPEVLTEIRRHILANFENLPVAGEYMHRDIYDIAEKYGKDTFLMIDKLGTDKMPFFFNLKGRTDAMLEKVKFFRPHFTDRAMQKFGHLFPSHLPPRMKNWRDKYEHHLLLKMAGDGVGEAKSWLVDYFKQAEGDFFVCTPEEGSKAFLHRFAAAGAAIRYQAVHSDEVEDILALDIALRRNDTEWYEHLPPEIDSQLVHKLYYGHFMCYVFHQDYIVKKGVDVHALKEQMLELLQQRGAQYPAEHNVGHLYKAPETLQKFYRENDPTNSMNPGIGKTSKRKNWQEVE
The source says: (§1) All reactions were monitored spectrophotometrically at 340 nm by using initial rates from the first 5% of reaction.

Test [2] has as its target 4-hydroxy-tetrahydrodipicolinate reductase (Escherichia coli (strain K12), UniProt P04036).
Excerpt: as §1

The target in test [3] is T2, 1-deoxy-D-xylulose 5-phosphate reductoisomerase (Escherichia coli (strain K12), UniProt P45568).
T2 sequence (P45568 whole entry): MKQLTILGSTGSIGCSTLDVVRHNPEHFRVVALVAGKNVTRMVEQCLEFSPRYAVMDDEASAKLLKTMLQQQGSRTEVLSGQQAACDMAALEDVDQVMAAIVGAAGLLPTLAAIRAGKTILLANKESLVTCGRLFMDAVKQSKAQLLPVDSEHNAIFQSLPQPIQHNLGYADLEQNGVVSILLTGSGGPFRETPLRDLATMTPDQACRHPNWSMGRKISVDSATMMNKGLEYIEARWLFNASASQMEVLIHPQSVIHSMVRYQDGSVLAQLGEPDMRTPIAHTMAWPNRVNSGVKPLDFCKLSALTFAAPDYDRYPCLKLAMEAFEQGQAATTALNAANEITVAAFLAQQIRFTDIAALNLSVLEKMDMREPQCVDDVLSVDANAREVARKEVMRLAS
Excerpt: as §1

4-hydroxy-tetrahydrodipicolinate reductase, sequence (P04036 whole entry): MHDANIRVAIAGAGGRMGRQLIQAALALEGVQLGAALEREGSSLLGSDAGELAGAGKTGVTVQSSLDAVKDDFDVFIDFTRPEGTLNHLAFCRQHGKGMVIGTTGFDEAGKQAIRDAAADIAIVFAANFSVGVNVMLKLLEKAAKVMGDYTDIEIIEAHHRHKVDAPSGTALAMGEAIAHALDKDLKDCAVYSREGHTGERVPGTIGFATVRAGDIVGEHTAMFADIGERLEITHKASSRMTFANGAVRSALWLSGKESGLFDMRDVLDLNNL

Consider `O=C(O)CN1C(=O)/C(=C/c2ccc(O)c(O)c2)SC1=S` [Bi-ligand, 1], for which the figures for the Ki in test [1], in test [2] and in test [3] were 55 µM, 0.026 µM and over 50 µM, respectively.
The matching figures for `O=C(CCCCN1C(=O)/C(=C/c2ccc(O)c(O)c2)SC1=S)NCc1ccc(Cl)c(Cl)c1` [Bi-ligand, 2]: 0.042 µM, over 50 µM and 10 µM.
With `Cc1ccc(Oc2ccc(NC(=O)CN3C(=O)/C(=C/c4ccc(O)c(O)c4)SC3=S)cc2)cc1` [Bi-ligand, 3], the Ki (usually the dissociation constant of the complex between target and ligand, obtained from inhibition or displacement) in test [1] is 12 µM; in test [2] it was over 25 µM; in test [3] it was 0.202 µM.
The matching figures for `O=C(CN1C(=O)/C(=C/c2ccc(O)c(O)c2)SC1=S)NCCSc1cc(C(=O)O)nc(C(=O)O)c1` [Bi-ligand, 4]: 0.62 µM, 0.1 µM and 7.9 µM.
